Values quoted from earlier work as cited in PMC12382740, “In Vitro and In Vivo Characterization of Novel Cathelicidin-Based Peptides with Antimicrobial Activity Against Pseudomonas aeruginosa” (Antibiotics, 2025).
* marks the point of attachment. Gu = N-terminal guanidylation, N=C(N)*

What was measured:
HeLa cells = system: HeLa cells; parameters: method as in PMID 26114809; settings: read-out: IC50 against HeLa cells; cited from earlier work
erythrocytes = system: erythrocytes; parameters: method as in PMID 26114809; settings: at 64 mg/L ref 58; cited from earlier work

Substance	IC50 (HeLa cells)	hemolysis (erythrocytes)
Gu-INLKALAALAKKIL-NH2 (SMILES CC[C@H](C)[C@H](NC(=N)N)C(=O)N[C@@H](CC(N)=O)C(=O)N[C@@H](CC(C)C)C(=O)N[C@@H](CCCCN)C(=O)N[C@@H](C)C(=O)N[C@@H](CC(C)C)C(=O)N[C@@H](C)C(=O)N[C@@H](C)C(=O)N[C@@H](CC(C)C)C(=O)N[C@@H](C)C(=O)N[C@@H](CCCCN)C(=O)N[C@@H](CCCCN)C(=O)N[C@H](C(=O)N[C@@H](CC(C)C)C(N)=O)[C@@H](C)CC) [guanidylated mastoparan analog]	13 µM	
H-INLKALAALAKKIL-CH2CH2NH2	5 µM	
H-inlkalaalakkil-NH2	10 µM	
mastoparan	32 µM	6.6%
